Results: patent US20260015315A1, “AMINO LIPID COMPOUND, PREPARATION METHOD THEREFOR, COMPOSITION THEREOF AND APPLICATION THEREOF” (SHENZHEN SHENXIN BIOTECHNOLOGY CO., LTD., priority 2022, published 2026)

Experiments:
BALB/c mice = experiment: In vivo delivery of lipid nanoparticle encapsulating luciferase mRNA (Fluc mRNA), IVIS imaging; details: for Total flux (fluorescence expression intensity): Fluc mRNA-LNP (amino lipid:DSPC:CHO-HP:PEG2000-DMG 48:10:40.5:1.5), whole body; for Total flux (fluorescence expression intensity) / Spleen (fluorescence expression intensity) / Liver (fluorescence expression intensity): 75 μL tail vein IV, female BALB/c mice, IVIS 6 hours after injection; for Spleen (fluorescence expression intensity) / (Spleen/Total Flux) * 100% / Multiple of spleen delivery/total delivery (Spleen/Total Flux) to Compound 118 / Liver (fluorescence expression intensity): Fluc mRNA-LNP; for (Spleen/Total Flux) * 100% / Multiple of spleen delivery/total delivery (Spleen/Total Flux) to Compound 118: tail vein IV, BALB/c mice, 6 hours; for Multiple of spleen delivery/total delivery (Spleen/Total Flux) to Compound 118: relative to Compound 118
Procedure: The amino lipid compound of the present disclosure, a helper lipid, a structural lipid, and a PEG-lipid were separately dissolved in absolute ethanol to prepare respective solutions at concentrations of 20 mg/mL, 10 mg/mL, 20 mg/mL, and 25 mg/mL, respectively. The above four solutions were pipetted at a molar ratio of the amino lipid compound: DSPC:CHO-HP:PEG2000-DMG of 48:10:40.5:1.5, and mixed well to prepare an alcohol phase.
(2) Encapsulation: The water phase and the alcohol phase were injected into a microfluidic chip at a flow rate of water phase:alcohol phase=12 mL/min: 4 mL/min by using a microfluidic preparation instrument (MPE-L2), and encapsulation was carried out at a flow rate of water phase:alcohol phase=9 mL/min: 3 mL/min to obtain mRNA-encapsulating lipid nanoparticle (mRNA-LNP).
(3) Dialysis: The product of step (2) was loaded in a dialysis bag and placed in a Tris Buffer-8% sucrose solution for replacement to remove ingredients such as residual ethanol, unassembled lipids. Dialysis was conducted for 2 h with magnetic stirring at room temperature and under protection from light (dialysate was replaced every 1 hour).
(4) The product of step (3) was sterilized by passing through a 0.22 μm microporous membrane, and then packaged.
Lipid nanoparticle formulations encapsulating Flue mRNA were prepared, with a concentration of Flue mRNA of 0.2 μg/μL, a mass ratio of Flue mRNA to Lipid of 1:10, a particle size of 80-130 nm, and a encapsulation efficiency of 80% or higher.
• Animal preparation: Female BALB/c mice of 6-8 weeks old were selected and raised in an SPF grade breeding room. Animal testing was conducted in strict accordance with the guidelines of national health institutions and animal ethics requirements.
In vivo Delivery: prior to injection of the test LNP formulations, the LNP formulations were gently and repeatedly inverted to thoroughly mix the formulation samples. A corresponding amount of the formulation samples were aspirated with a 1 ml insulin syringe, and the LNP formulations were injected by tail vein injection (IV), with 3 mice in duplicate per formulation. Each mouse was injected with 75 μL of the luciferase mRNA (Flue mRNA)-encapsulating lipid nanoparticle formulation prepared in Experimental Example 1.
6 hours after injection of LNP formulations, mice were injected with 200 μL D-Luciferin luciferase developing substrate (Catalog No. 122799; Manufacturer: Perkin Elmer). After the substrate was injected, the mice were anesthetized by injection of 200 μl of 2.5% avertin, and the injection time of luciferase developing substrate was recorded.
The fluorescence expression intensity induced by the lipid nanoparticle encapsulating luciferase mRNA (Flue mRNA) with a representative amino lipid compound is shown in Table 4, with the amino lipid compound 118 as a control.

[1] = test system: immune cell populations in different tissues and organs; experiment: Delivery efficiency of eGFP mRNA encapsulating LNP to immune cell populations in different tissues and organs (flow cytometry); assay type: in vivo; details: eGFP mRNA-LNP intravenous, C57BL/6 mice, 6 hours; spleen, axillary lymph nodes, peripheral blood, bone marrow, lungs, liver; FIGS. 1A to 1F
Procedure: C57BL/6 mice (3 mice per group) were intravenously injected with eGFP mRNA encapsulating LNP. After 6 hours, the mice were dissected, and the spleen, axillary lymph nodes, peripheral blood, bone marrow, lungs and liver were collected to prepare single-cell suspensions of various tissues and organs. After blocking with Fe blocking antibodies and surface staining with fluorescent-labeled antibodies, sample analysis was conducted by flow cytometry to analyze the expression levels of eGFP in various immune cell populations to confirm the delivery efficiency of lipid nanoparticles comprising different amino lipid compounds to immune cell populations in different tissues and organs.

## CCCCCCC(CCCCCC)OC(=O)CCCCCCCCC(CCCCCCCCC(=O)OC(CCCCCC)CCCCCC)N(CCCN(C)C)C(=O)CCCOCCCCC [compound 130]
BALB/c mice
  Total flux (fluorescence expression intensity): 5.73E+07
  Spleen (fluorescence expression intensity): 1.13E+07
  (Spleen/Total Flux) * 100%: 19.72%
  Multiple of spleen delivery/total delivery (Spleen/Total Flux) to Compound 118: 17.30
[1]
  Delivery preference to immune cells (eGFP expression in immune cell populations): clear delivery preference to immune cells in various tissues and organs

## CCCCCCOCCCC(=O)N(CCCN(C)C)C(CCCCCCCCC(=O)OC(CCCCCC)CCCCCC)CCCCCCCCC(=O)OC(CCCCCC)CCCCCC [compound 131]
BALB/c mice
  Total flux (fluorescence expression intensity): 3.26E+07
  Spleen (fluorescence expression intensity): 6.59E+06
  (Spleen/Total Flux) * 100%: 20.21%
  Multiple of spleen delivery/total delivery (Spleen/Total Flux) to Compound 118: 17.73
[1]
  Delivery preference to immune cells (eGFP expression in immune cell populations): clear delivery preference to immune cells in various tissues and organs

## CCCCCCCCOCCCC(=O)N(CCCN(C)C)C(CCCCCCCCC(=O)OC(CCCCCC)CCCCCC)CCCCCCCCC(=O)OC(CCCCCC)CCCCCC [compound 133]
BALB/c mice
  Total flux (fluorescence expression intensity): 3.58E+07
  Spleen (fluorescence expression intensity): 1.25E+07
  (Spleen/Total Flux) * 100%: 34.92%
  Multiple of spleen delivery/total delivery (Spleen/Total Flux) to Compound 118: 30.63
[1]
  Delivery preference to immune cells (eGFP expression in immune cell populations): clear delivery preference to immune cells in various tissues and organs

## CCCCCCC(CCCCCC)OC(=O)CCCCCCCCC(CCCCCCCCC(=O)OC(CCCCCC)CCCCCC)N(CCCCN(C)C)C(=O)COCCCCC [compound 167]
BALB/c mice
  Total flux (fluorescence expression intensity): 4.02E+07
  Liver (fluorescence expression intensity): 4.42E+06
  Spleen (fluorescence expression intensity): 7.64E+06
  (Spleen/Total Flux) * 100%: 19.00%
  Multiple of spleen delivery/total delivery (Spleen/Total Flux) to Compound 118: 16.67

## CCCCCCOCC(=O)N(CCCCN(C)C)C(CCCCCCCCC(=O)OC(CCCCCC)CCCCCC)CCCCCCCCC(=O)OC(CCCCCC)CCCCCC [compound 168]
BALB/c mice
  Total flux (fluorescence expression intensity): 2.68E+07
  Liver (fluorescence expression intensity): 9.12E+06
  Spleen (fluorescence expression intensity): 8.95E+06
  (Spleen/Total Flux) * 100%: 33.40%
  Multiple of spleen delivery/total delivery (Spleen/Total Flux) to Compound 118: 29.29

## CCCCCCCOCC(=O)N(CCCCN(C)C)C(CCCCCCCCC(=O)OC(CCCCCC)CCCCCC)CCCCCCCCC(=O)OC(CCCCCC)CCCCCC [compound 169]
BALB/c mice
  Total flux (fluorescence expression intensity): 1.17E+07
  Liver (fluorescence expression intensity): 6.59E+06
  Spleen (fluorescence expression intensity): 5.11E+06
  (Spleen/Total Flux) * 100%: 43.68%
  Multiple of spleen delivery/total delivery (Spleen/Total Flux) to Compound 118: 38.31

## CCCCCCCCOCC(=O)N(CCCCN(C)C)C(CCCCCCCCC(=O)OC(CCCCCC)CCCCCC)CCCCCCCCC(=O)OC(CCCCCC)CCCCCC [compound 170]
BALB/c mice
  Total flux (fluorescence expression intensity): 2.89E+07
  Liver (fluorescence expression intensity): 1.34E+07
  Spleen (fluorescence expression intensity): 1.07E+07
  (Spleen/Total Flux) * 100%: 37.02%
  Multiple of spleen delivery/total delivery (Spleen/Total Flux) to Compound 118: 32.48

## CCCCCCC(CCCCCC)OC(=O)CCCCCCCCC(CCCCCCCCC(=O)OC(CCCCCC)CCCCCC)N(CCCCN(C)C)C(=O)CCOCCCC [compound 171]
BALB/c mice
  Total flux (fluorescence expression intensity): 1.15E+07
  Liver (fluorescence expression intensity): 5.33E+06
  Spleen (fluorescence expression intensity): 3.97E+06
  (Spleen/Total Flux) * 100%: 34.52%
  Multiple of spleen delivery/total delivery (Spleen/Total Flux) to Compound 118: 30.28

## CCCCCCC(CCCCCC)OC(=O)CCCCCCCCC(CCCCCCCCC(=O)OC(CCCCCC)CCCCCC)N(CCCCN(C)C)C(=O)CCOCCCCC [compound 172]
BALB/c mice
  Total flux (fluorescence expression intensity): 8.64E+07
  Liver (fluorescence expression intensity): 3.10E+07
  Spleen (fluorescence expression intensity): 9.69E+06
  (Spleen/Total Flux) * 100%: 11.22%
  Multiple of spleen delivery/total delivery (Spleen/Total Flux) to Compound 118: 9.84

## CCCCCCOCCC(=O)N(CCCCN(C)C)C(CCCCCCCCC(=O)OC(CCCCCC)CCCCCC)CCCCCCCCC(=O)OC(CCCCCC)CCCCCC [compound 173]
BALB/c mice
  Total flux (fluorescence expression intensity): 2.07E+07
  Liver (fluorescence expression intensity): 9.15E+06
  Spleen (fluorescence expression intensity): 8.03E+06
  (Spleen/Total Flux) * 100%: 38.79%
  Multiple of spleen delivery/total delivery (Spleen/Total Flux) to Compound 118: 34.03

## CCCCCCCOCCC(=O)N(CCCCN(C)C)C(CCCCCCCCC(=O)OC(CCCCCC)CCCCCC)CCCCCCCCC(=O)OC(CCCCCC)CCCCCC [compound 174]
BALB/c mice
  Total flux (fluorescence expression intensity): 9.59E+07
  Liver (fluorescence expression intensity): 1.62E+07
  Spleen (fluorescence expression intensity): 7.28E+06
  (Spleen/Total Flux) * 100%: 7.59%
  Multiple of spleen delivery/total delivery (Spleen/Total Flux) to Compound 118: 6.66

## CCCCCCCCOCCC(=O)N(CCCCN(C)C)C(CCCCCCCCC(=O)OC(CCCCCC)CCCCCC)CCCCCCCCC(=O)OC(CCCCCC)CCCCCC [compound 175]
BALB/c mice
  Total flux (fluorescence expression intensity): 5.15E+07
  Liver (fluorescence expression intensity): 1.57E+07
  Spleen (fluorescence expression intensity): 1.21E+07
  (Spleen/Total Flux) * 100%: 23.50%
  Multiple of spleen delivery/total delivery (Spleen/Total Flux) to Compound 118: 20.61

## CCCCCCC(CCCCCC)OC(=O)CCCCCCCCC(CCCCCCCCC(=O)OC(CCCCCC)CCCCCC)N(CCCCN(C)C)C(=O)CCCOCCCCC [compound 177]
BALB/c mice
  Total flux (fluorescence expression intensity): 2.52E+07
  Liver (fluorescence expression intensity): 5.04E+06
  Spleen (fluorescence expression intensity): 3.23E+06
  (Spleen/Total Flux) * 100%: 12.82%
  Multiple of spleen delivery/total delivery (Spleen/Total Flux) to Compound 118: 11.24

## CCCCCCOCCCC(=O)N(CCCCN(C)C)C(CCCCCCCCC(=O)OC(CCCCCC)CCCCCC)CCCCCCCCC(=O)OC(CCCCCC)CCCCCC [compound 178]
BALB/c mice
  Total flux (fluorescence expression intensity): 6.68E+07
  Liver (fluorescence expression intensity): 1.15E+07
  Spleen (fluorescence expression intensity): 3.95E+06
  (Spleen/Total Flux) * 100%: 5.91%
  Multiple of spleen delivery/total delivery (Spleen/Total Flux) to Compound 118: 5.19
